“Also recorded” adds a separate entry of the source.
What was measured:
[1] = test system: full-thickness 6 mm excisional wounds; experiment: Murine excisional wound model with immunohistochemistry; conditions: for murine wound closure (wound area): FIG. 3, 0.1% in 100 μl hydroactive gel, topical, daily
Experimental: FVB/NJ (β2-AR+/+) mice, were purchased from The Jackson laboratory (Bar Harbor, Me.). All animals used in the study were females between 8-12 weeks of age. β2-AR+/+ mice were anaesthetized by intraperitoneal injection of ketamine (100 mg/kg)/xylazine (10 mg/kg) (Pfizer). Back skin was shaved and two circular full-thickness 6 mm excisional wounds were created 2 cm apart, in the centre of the back, using a sterile 6 mm biopsy punch (SMS Inc.). […] Each mouse was housed separately after wounding until wound harvest. Wounds were left uncovered and digitally photographed, daily, to determine wound contraction over time. Wounds were harvested at days 3 and 5 post-wounding by carefully applying an 8 mm punch (SMS Inc.) around the original wound site and lightly pressing to form an outline on the skin. Scissors were then used to remove the wound site without damaging the delicate wound bed.
For histological analysis the wounds were fixed in an IHC zinc fixative (BD Biosciences). The zinc-fixed biopsies were bisected to ensure that sections were taken from the centre of the wound, dehydrated through an ethanol xylene series, and embedded in paraffin.
Specimens that were damaged in the histological process or otherwise non-interpretable were excluded from the study. Wound closure was quantified by measuring the wound area of each wound from the digital pictures taken every day with Image J, National Institutes of Health website. Images of the smooth muscle-alpha actin (SMA)-stained wounds were captured at 2× magnification on a Nikon SMZ-U upright microscope with Nikon ACT-1 software (as shown in FIG. 4). Image J was used to determine the area of SMA staining in each wound to calculate the mean area of SMA staining in each group (as shown in FIG. 5). Images of the collagen III stained wounds were captured at 20× magnification on a Nikon Eclipse 2000U inverted microscope with NIS-Elements software (as shown in FIG. 6). The intensity of collagen III staining was graded on a scale of 0-6, no staining receiving a score of 0 and the darkest staining receiving a score of 6 (as shown in FIG. 7). The staining of each wound was scored in a double-blind manner and the mean staining intensity was calculated for each group.

Human dermal fibroblasts [2] = experiment: Tethered (anchored) collagen gel model of wounded dermis; assay type: cell-based; conditions: 10 μM, 4 days incubation; for collagen I staining in fibroblasts released from collagen gels: FIG. 8B; for smooth muscle alpha actin staining in fibroblasts released from collagen gels: FIG. 8D
Experimental: 50% collagen I gels were seeded with 30,000 cells per ml in the absence or presence of a β2-AR agonist or a β2-AR antagonist.

Human dermal fibroblasts [3] = experiment: Secretion of TGF-β1, TGF-β2, TGF-β3 from dermal fibroblasts (ELISA); assay type: cell-based; conditions: FIG. 9
Experimental: (§1) Human dermal fibroblasts (FIGS. 9 and 15) or human neutrophils (VEGF only) (FIG. 15) were seeded into 6-well plates and grown to 60% confluence in FM. […] The supernatants were prepared and assayed using ELISA kits for TGF-β1, TGF-β2, 15 TGF-β3 and VEGF (R & D systems) following the Manufacturer's instructions.

dermal fibroblasts = experiment: Floating collagen gel contraction assay; assay type: cell-based; conditions: FIG. 2; 10 nM
Experimental: The individual solutions were prepared and cooled to 4° C. before mixing to prevent premature gelation. The final solution contained 40% (v/v) Vitrogen, 20% DMEM, 30% DMEM with Hepes buffer, and 10% calf serum. Cells were incubated with the appropriate drug concentration for 30 minutes at 37° C. and added to the collagen gel mix just before gel casting at the concentration of 30,000 per ml. The lattices were cast, with 1.7 ml of the final solution per dish, in 35 mm bacteriologic dishes (Falcon Labware, BD Biosciences), to which fibroblasts poorly adhere. The mixture gelled within 30 minutes upon incubation at 37° C. in a humidified atmosphere of 95 percent air and 5 percent CO2.
To determine the effect of β2-AR antagonists on floating gel contraction (as shown in FIG. 2), lattices were detached from the sides of the dishes after 2 hours by rimming the edges of the dishes using a sterile […] and gently shaking the dishes until the gels slid freely. Lattice retraction was measured every day by placing the dishes over a flat ruler on a black background. To determine the effect of β2-AR agonists and antagonists on proliferation of cells in a model of the wound dermis, the gels remained anchored to the side of the dish (as shown in FIG. 8).

Human dermal fibroblasts [4] = experiment: Secretion of VEGF from dermal fibroblasts (ELISA); assay type: cell-based; conditions: FIG. 15; after 48 hours; vs control
Experimental: as §1

human neutrophils = experiment: Secretion of VEGF from neutrophils (ELISA); assay type: cell-based; conditions: FIG. 15; after 48 hours; vs control
Experimental: as §1

SMILES | murine wound closure (wound area) [1] | collagen I staining in fibroblasts released from collagen gels (Human dermal fibroblasts [2]) | smooth muscle alpha actin staining in fibroblasts released from collagen gels (Human dermal fibroblasts [2]) | increase in amount of TGF-β3 secreted (Human dermal fibroblasts [3]; 10 μM, 24 hours, vs control) | amount of VEGF secreted from human dermal fibroblasts (Human dermal fibroblasts [4]) | amount of VEGF secreted from human neutrophils (human neutrophils) | further results
Cc1ccc(OCC(O)C(C)NC(C)C)c2c1CCC2 (stereo not drawn) [ICI 118,551] | enhances; also recorded: acceleration | increases | increases | no effect |  |  | smooth muscle α-actin staining / expressing cells in the wound dermis ([1]; FIGS. 4 and 5, 5 days post wounding, 0.1% topical daily, vs controls): increase; collagen III deposition (staining) in the wound dermis ([1]; FIGS. 6 and 7, 5 days post wounding, 0.1% topical daily, vs controls): increase; rigidity of human dermal fibroblast-seeded collagen gels (Human dermal fibroblasts [2]; FIG. 8A): increases; increase in TGF-β1 levels (Human dermal fibroblasts [3]; 10 μM, 24 hours, vs control): 3 fold; increase in TGFβ2 levels (Human dermal fibroblasts [3]; 10 μM, after 6 hours, vs control): 1.6 fold; increase in TGF-β2 levels (Human dermal fibroblasts [3]; time given as 24 hours, not stated): 1.6 fold; dermal fibroblast-mediated floating collagen gel contraction (dermal fibroblasts): enhance
CC(C)(C)NC[C@H](O)COc1nsnc1N1CCOCC1 [timolol] |  |  |  |  | increase | increase | 
OCc1cc(C(O)CNCCCCCCOCCCCc2ccccc2)ccc1O (stereo not drawn) [salmeterol] |  |  |  |  | decrease | decrease | 
COc1ccc(CC(C)NCC(O)c2ccc(O)c(NC=O)c2)cc1 (stereo not drawn) [formotorol] |  |  |  |  | decrease |  | 
CC(C)NCC(O)c1ccc(O)c(O)c1 (stereo not drawn) [isoproterenol] |  |  |  |  | decrease | decrease | 
CC(C)(C)NCC(O)c1ccc(O)c(CO)c1 (stereo not drawn) [salbutamol] | delayed | decreases | decreases | 5 fold | decrease | decrease | human dermal fibroblast proliferation in collagen gels (Human dermal fibroblasts [2]; FIG. 8C): decreases; decrease in amount of TGF-β1 secreted (Human dermal fibroblasts [3]; 10 μM, 24 hours, vs control): 4 fold; decrease in amount of secreted TGFβ1 (Human dermal fibroblasts [3]; 10 μM, after 24 hours, vs control): 74%

From US9555013B2, “Modulation of fibroblast activity” (The University of Leicester, priority 2008, dated 2017)
